Reference: patent US9789096B2, “Methods and compositions for selective and targeted cancer therapy” (Board of Regents of the University of Texas System, priority 2013, dated 2017)

System: HCC44
Experiment: Cell viability dose-response, HCC44
Type: cell-based, human
Conditions: Homo sapiens, HCC44, Tables 3 and 4; read-out: IC50 (uM) vs indicated non-small cell lung cancer cell line HCC44
Method in brief: (§1)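 Compound is titrated onto cells seeded at 15% confluence and incubated four days in 5% FBS RPMI-1640 medium. ATP-based luminescence gives viability; duplicate means ±SEM define the dose-response curve.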

Structure (SMILES)	IC50 [µM]
Cc1cc(C)nc(SCC(=O)Nc2nc3ccccc3s2)n1 [SW053831]	33
O=C(Nc1ccccc1F)c1sc2ccccc2c1Cl [SW118094]	0.09
O=C(Nc1ccc(F)c(Cl)c1)c1sc2ccccc2c1Cl [SW118753]	265
NC(=O)c1c(NC(=O)c2ccc(Br)o2)sc2c1CCCC2 [SW172864]	2.52
O=C(Nc1nnc(C2CCCCC2)s1)c1sc2ccccc2c1Cl [SW173997]	23.1
COc1ccc2nc(NC(=O)c3cccnc3)sc2c1 [SW202774-1]	1.01
COc1ccc2nc(NC(=O)c3c(F)ccc(OC)c3F)sc2c1 [SW202775-1]	16.9
O=C(c1ccc(O)cc1)c1ccc(NC(=O)c2sc3ccccc3c2Cl)cc1 [SW202856-1]	1.06
O=C(Nc1nc2ccc(O)cc2s1)c1c(F)ccc(O)c1F [SW202860-1]	15.1

System: HCC95
Experiment: Cell viability dose-response, HCC95
Type: cell-based
Conditions: Homo sapiens, Tables 3 and 4, read-out: IC50 (uM) vs indicated non-small cell lung cancer cell line HCC95
Method: (§2) FIG. 6A. […] Cell viability is plotted vs. compound concentration. Compound was added to cells plated at 15% confluence in 96-well plates in RPMI-1640 media supplemented with 5% Fetal Bovine Serum and 2 mM L-Glutamine. After 4 days of incubation, ATP levels were measured using Cell Titer Glo (Promega). Data are presented as the average of 2 replicates ±SEM.
(§3) Selectivity may be measured by the half maximal inhibitory concentration (IC50), which, as used herein, is a measure of the effectiveness of a compound in killing cells. This quantitative measure indicates how much of a particular compound is needed to kill a particular cell population by half (e.g., as indicated by the amount of ATP). […] The IC50 can be determined by constructing a dose-response curve. The lower the IC50, the higher the potency, and the greater the difference between IC50 values for different cell lines (e.g., sensitive lines vs. insensitive lines, and sensitive lines vs. normal lines) the greater the selectivity. […]
(§4) With this information, we synthesized and tested a series of small molecules derived in conception from the oxalamide and chromone scaffold including N-acyl ureas, as shown in Tables 6-8. Each compound was tested in a 12-point dose-response study starting at 50 micromolar and decreasing in 3-fold increments to sub-nanomolar concentrations, in duplicate. Additionally, one or more additional cell line was tested in the same way.

Structure (SMILES)	IC50 [µM]
COc1ccc2sc(NC(=O)c3ccc([N+](=O)[O-])cc3)nc2c1 [SW004969]	0.2
Cc1cc(C)nc(SCC(=O)Nc2nc3ccccc3s2)n1 [SW053831]	85
O=C(Nc1ccc(F)c(Cl)c1)c1sc2ccccc2c1Cl [SW118753]	300
NC(=O)c1c(NC(=O)c2ccc(Br)o2)sc2c1CCCC2 [SW172864]	43.6
O=C(Nc1nnc(C2CCCCC2)s1)c1sc2ccccc2c1Cl [SW173997]	23.8
COc1ccc2nc(NC(=O)c3cccnc3)sc2c1 [SW202774-1]	0.336
COc1ccc2nc(NC(=O)c3c(F)ccc(OC)c3F)sc2c1 [SW202775-1]	3.19
O=C(c1ccc(O)cc1)c1ccc(NC(=O)c2sc3ccccc3c2Cl)cc1 [SW202856-1]	12.8
O=C(Nc1nc2ccc(O)cc2s1)c1c(F)ccc(O)c1F [SW202860-1]	44.9

System: H1819
Experiment: Cell viability dose-response, H1819
Type: cell-based, human
Conditions: Homo sapiens, NCI-H1819, Tables 3 and 4; read-out: IC50 (uM) vs indicated non-small cell lung cancer cell line H1819
Method in brief: (§5)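 Cells plated at 15% confluence in RPMI-1640 with 5% FBS and 2 mM L-glutamine, treated with compound in a 12-point, 3-fold dilution series from 50 micromolar, in duplicate. ATP measured by Cell Titer Glo after 4 days; IC50 taken from the dose-response curve.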

Structure (SMILES)	IC50 [µM]
Cc1cc(C)nc(SCC(=O)Nc2nc3ccccc3s2)n1 [SW053831]	63
O=C(Nc1ccccc1F)c1sc2ccccc2c1Cl [SW118094]	1.21
O=C(Nc1ccc(F)c(Cl)c1)c1sc2ccccc2c1Cl [SW118753]	38
O=C(Nc1nnc(C2CCCCC2)s1)c1sc2ccccc2c1Cl [SW173997]	48.5
O=C(c1ccc(O)cc1)c1ccc(NC(=O)c2sc3ccccc3c2Cl)cc1 [SW202856-1]	40.2

System: H2073
Experiment: Cell viability dose-response, H2073
Type: cell-based, human
Conditions: Homo sapiens, NCI-H2073, Tables 3 and 4; read-out: IC50 (uM) vs indicated non-small cell lung cancer cell line H2073
Method in brief: as §1

Structure (SMILES)	IC50 [µM]
COc1ccc2sc(NC(=O)c3ccc([N+](=O)[O-])cc3)nc2c1 [SW004969]	0.658
Cc1cc(C)nc(SCC(=O)Nc2nc3ccccc3s2)n1 [SW053831]	0.85
O=C(Nc1ccc(F)c(Cl)c1)c1sc2ccccc2c1Cl [SW118753]	0.9
NC(=O)c1c(NC(=O)c2ccc(Br)o2)sc2c1CCCC2 [SW172864]	0.129
O=C(Nc1nnc(C2CCCCC2)s1)c1sc2ccccc2c1Cl [SW173997]	11.4
COc1ccc2nc(NC(=O)c3cccnc3)sc2c1 [SW202774-1]	1.34
COc1ccc2nc(NC(=O)c3c(F)ccc(OC)c3F)sc2c1 [SW202775-1]	5.96
O=C(c1ccc(O)cc1)c1ccc(NC(=O)c2sc3ccccc3c2Cl)cc1 [SW202856-1]	48.4
O=C(Nc1nc2ccc(O)cc2s1)c1c(F)ccc(O)c1F [SW202860-1]	18.1

System: H2009
Experiment: Cell viability dose-response, H2009
Type: cell-based, human
Conditions: Homo sapiens, NCI-H2009; Tables 3 and 4; read-out: IC50 (uM) vs indicated non-small cell lung cancer cell line H2009
Method in brief: as §1

Structure (SMILES)	IC50 [µM]
COc1ccc2sc(NC(=O)c3ccc([N+](=O)[O-])cc3)nc2c1 [SW004969]	5.5
Cc1cc(C)nc(SCC(=O)Nc2nc3ccccc3s2)n1 [SW053831]	104
O=C(Nc1ccc(F)c(Cl)c1)c1sc2ccccc2c1Cl [SW118753]	65
NC(=O)c1c(NC(=O)c2ccc(Br)o2)sc2c1CCCC2 [SW172864]	3.2
O=C(Nc1nnc(C2CCCCC2)s1)c1sc2ccccc2c1Cl [SW173997]	21.5
COc1ccc2nc(NC(=O)c3cccnc3)sc2c1 [SW202774-1]	36.6
O=C(c1ccc(O)cc1)c1ccc(NC(=O)c2sc3ccccc3c2Cl)cc1 [SW202856-1]	4.76
O=C(Nc1nc2ccc(O)cc2s1)c1c(F)ccc(O)c1F [SW202860-1]	41.7

System: H1993
Experiment: Cell viability dose-response, H1993
Type: cell-based
Conditions: Homo sapiens, NCI-H1993; Tables 3 and 4; read-out: IC50 (uM) vs indicated non-small cell lung cancer cell line H1993
Method: as §2, §3, §4

Structure (SMILES)	IC50 [µM]
Cc1cc(C)nc(SCC(=O)Nc2nc3ccccc3s2)n1 [SW053831]	29
O=C(Nc1ccc(F)c(Cl)c1)c1sc2ccccc2c1Cl [SW118753]	73
NC(=O)c1c(NC(=O)c2ccc(Br)o2)sc2c1CCCC2 [SW172864]	0.871
O=C(Nc1nnc(C2CCCCC2)s1)c1sc2ccccc2c1Cl [SW173997]	16.9
COc1ccc2nc(NC(=O)c3cccnc3)sc2c1 [SW202774-1]	25.5
COc1ccc2nc(NC(=O)c3c(F)ccc(OC)c3F)sc2c1 [SW202775-1]	8.87
O=C(c1ccc(O)cc1)c1ccc(NC(=O)c2sc3ccccc3c2Cl)cc1 [SW202856-1]	13.6
O=C(Nc1nc2ccc(O)cc2s1)c1c(F)ccc(O)c1F [SW202860-1]	35.6

System: H1395
Experiment: Cell viability dose-response, H1395
Type: cell-based
Conditions: Homo sapiens, NCI-H1395; Tables 3 and 4; read-out: IC50 (uM) vs indicated non-small cell lung cancer cell line H1395
Method: as §2, §3, §4

Structure (SMILES)	IC50 [µM]
Cc1cc(C)nc(SCC(=O)Nc2nc3ccccc3s2)n1 [SW053831]	65
O=C(Nc1ccc(F)c(Cl)c1)c1sc2ccccc2c1Cl [SW118753]	600
NC(=O)c1c(NC(=O)c2ccc(Br)o2)sc2c1CCCC2 [SW172864]	44.5
O=C(Nc1nnc(C2CCCCC2)s1)c1sc2ccccc2c1Cl [SW173997]	41.3

System: H1155
Experiment: Cell viability dose-response, H1155
Type: cell-based
Conditions: Homo sapiens, NCI-H1155; Tables 3 and 4; read-out: IC50 (uM) vs indicated non-small cell lung cancer cell line H1155
Method: as §2, §3, §4

Structure (SMILES)	IC50 [µM]
Cc1cc(C)nc(SCC(=O)Nc2nc3ccccc3s2)n1 [SW053831]	43
O=C(Nc1ccc(F)c(Cl)c1)c1sc2ccccc2c1Cl [SW118753]	105
O=C(Nc1nnc(C2CCCCC2)s1)c1sc2ccccc2c1Cl [SW173997]	23.8
COc1ccc2nc(NC(=O)c3cccnc3)sc2c1 [SW202774-1]	35.2
COc1ccc2nc(NC(=O)c3c(F)ccc(OC)c3F)sc2c1 [SW202775-1]	35.5
O=C(c1ccc(O)cc1)c1ccc(NC(=O)c2sc3ccccc3c2Cl)cc1 [SW202856-1]	20.4
O=C(Nc1nc2ccc(O)cc2s1)c1c(F)ccc(O)c1F [SW202860-1]	49.2

System: HCC4017
Experiment: Cell viability dose-response, HCC4017
Type: cell-based, human
Conditions: Homo sapiens, HCC4017, Tables 3 and 4; read-out: IC50 (uM) vs indicated non-small cell lung cancer cell line HCC4017
Method: as §2, §3, §4

Structure (SMILES)	IC50 [µM]
Cc1cc(C)nc(SCC(=O)Nc2nc3ccccc3s2)n1 [SW053831]	98
O=C(Nc1ccccc1F)c1sc2ccccc2c1Cl [SW118094]	0.322
O=C(Nc1ccc(F)c(Cl)c1)c1sc2ccccc2c1Cl [SW118753]	700
NC(=O)c1c(NC(=O)c2ccc(Br)o2)sc2c1CCCC2 [SW172864]	1.71
O=C(Nc1nnc(C2CCCCC2)s1)c1sc2ccccc2c1Cl [SW173997]	24
O=C(c1ccc(O)cc1)c1ccc(NC(=O)c2sc3ccccc3c2Cl)cc1 [SW202856-1]	13.3
O=C(Nc1nc2ccc(O)cc2s1)c1c(F)ccc(O)c1F [SW202860-1]	47.5

System: H460
Experiment: Cell viability dose-response, H460
Type: cell-based
Conditions: Homo sapiens, NCI-H460; Tables 3 and 4; read-out: IC50 (uM) vs indicated non-small cell lung cancer cell line H460
Method: as §2, §3, §4

Structure (SMILES)	IC50 [µM]
COc1ccc2sc(NC(=O)c3ccc([N+](=O)[O-])cc3)nc2c1 [SW004969]	0.521
O=C(Nc1ccccc1F)c1sc2ccccc2c1Cl [SW118094]	0.606
NC(=O)c1c(NC(=O)c2ccc(Br)o2)sc2c1CCCC2 [SW172864]	35.1
O=C(Nc1nnc(C2CCCCC2)s1)c1sc2ccccc2c1Cl [SW173997]	44.5
COc1ccc2nc(NC(=O)c3cccnc3)sc2c1 [SW202774-1]	1.31
COc1ccc2nc(NC(=O)c3c(F)ccc(OC)c3F)sc2c1 [SW202775-1]	48
O=C(c1ccc(O)cc1)c1ccc(NC(=O)c2sc3ccccc3c2Cl)cc1 [SW202856-1]	44.5
O=C(Nc1nc2ccc(O)cc2s1)c1c(F)ccc(O)c1F [SW202860-1]	47.8

System: HBEC30KT
Experiment: Cell viability (ATP, Cell Titer Glo, 4 days), HBEC30KT
Type: cell-based, human
Conditions: Homo sapiens, Tables 3 and 4; read-out: HBEC30KT IC50
Method: as §2, §3

Structure (SMILES)	IC50 [µM]
Cc1cc(C)nc(SCC(=O)Nc2nc3ccccc3s2)n1 [SW053831]	60
O=C(Nc1ccccc1F)c1sc2ccccc2c1Cl [SW118094]	34.1
O=C(Nc1ccc(F)c(Cl)c1)c1sc2ccccc2c1Cl [SW118753]	108
NC(=O)c1c(NC(=O)c2ccc(Br)o2)sc2c1CCCC2 [SW172864]	12.6
COc1ccc2nc(NC(=O)c3cccnc3)sc2c1 [SW202774-1]	46.7
O=C(c1ccc(O)cc1)c1ccc(NC(=O)c2sc3ccccc3c2Cl)cc1 [SW202856-1]	6.08

System: HCC366
Experiment: Cell viability dose-response, HCC366
Type: cell-based
Conditions: Homo sapiens, Tables 3 and 4, read-out: IC50 (uM) vs indicated non-small cell lung cancer cell line HCC366
Method: as §2, §3, §4

Structure (SMILES)	IC50 [µM]
Cc1cc(C)nc(SCC(=O)Nc2nc3ccccc3s2)n1 [SW053831]	80
O=C(Nc1ccccc1F)c1sc2ccccc2c1Cl [SW118094]	124
O=C(Nc1ccc(F)c(Cl)c1)c1sc2ccccc2c1Cl [SW118753]	375
O=C(Nc1nnc(C2CCCCC2)s1)c1sc2ccccc2c1Cl [SW173997]	40.9
O=C(c1ccc(O)cc1)c1ccc(NC(=O)c2sc3ccccc3c2Cl)cc1 [SW202856-1]	40.6
O=C(Nc1nc2ccc(O)cc2s1)c1c(F)ccc(O)c1F [SW202860-1]	42.6

System: H2122
Experiment: Cell viability dose-response, H2122
Type: cell-based, human
Conditions: Homo sapiens, NCI-H2122, Tables 3 and 4; read-out: IC50 (uM) vs indicated non-small cell lung cancer cell line H2122
Method in brief: as §5

Structure (SMILES)	IC50 [µM]
COc1ccc2sc(NC(=O)c3ccc([N+](=O)[O-])cc3)nc2c1 [SW004969]	0.21
Cc1cc(C)nc(SCC(=O)Nc2nc3ccccc3s2)n1 [SW053831]	47
O=C(Nc1ccccc1F)c1sc2ccccc2c1Cl [SW118094]	1.05
O=C(Nc1ccc(F)c(Cl)c1)c1sc2ccccc2c1Cl [SW118753]	0.8
O=C(Nc1nnc(C2CCCCC2)s1)c1sc2ccccc2c1Cl [SW173997]	0.27
COc1ccc2nc(NC(=O)c3cccnc3)sc2c1 [SW202774-1]	1.08
COc1ccc2nc(NC(=O)c3c(F)ccc(OC)c3F)sc2c1 [SW202775-1]	6.53
O=C(c1ccc(O)cc1)c1ccc(NC(=O)c2sc3ccccc3c2Cl)cc1 [SW202856-1]	33.8
O=C(Nc1nc2ccc(O)cc2s1)c1c(F)ccc(O)c1F [SW202860-1]	4.05
